Source: patent US12642784B2, “ANAVEX2-73 for the treatment of genetic neurodevelopmental disorders” (ANAVEX LIFE SCIENCES CORP., priority 2019, dated 2026)

Assays:
[1] = test system: glutamate and GABA biomarkers; experiment: Example 5: plasma glutamate and GABA biomarkers; type: in vivo, human; details: Week 0 vs. Week 7; Wilcoxon Z=−1.992, p (2-tailed)=0.046
Source text: In one aspect, the method further comprises measuring, or having measured or obtained a baseline plasma glutamate and/or gamma aminobutyric acid (GABA) level in the subject prior to treatment with ANAVEX2-73 as described herein, and measuring or having measured or obtained at least a second plasma glutamate and/or gamma aminobutyric acid (GABA) level following a period of treatment with ANAVEX2-73 as described herein. Measurement of a plasma glutamate and/or gamma aminobutyric acid (GABA) level comprises withdrawing a whole blood sample from the subject, separating the blood plasma from remaining whole blood components such as by centrifuging the sample, isolating the blood plasma, and measuring the amount of glutamate and/or gamma aminobutyric acid (GABA) in the blood plasma using any one of several techniques known in the art. […]
(§1) For efficacy, the following parameters were measured in the female subjects: Rett Syndrome Behavior Questionnaire (RSBQ), Clinical Global Impressions (CGI-I), hand behaviors (RSBQ), breathing problems (RSBQ), waking during sleep (RSBQ), and glutamate biomarker, and GABA biomarkers.
(§2) Evaluation of the efficacy was measured as a comparison from baseline (week 0), week 4, and to end of treatment (week 7). Blood plasma samples were analyzed at week 0 and at week 7 to measure the levels of glutamate and GABA biomarkers. […]

[2] = test system: subject diagnosed with Rett Syndrome; experiment: Example 1: daily liquid formulation in a subject with Rett Syndrome, follow-up questionnaire; type: in vivo, human; details: 5 mL of 0.2 mg/mL liquid formulation daily, total daily dose 1 mg
Protocol: A subject diagnosed with Rett Syndrome was daily administered 5 mL of a liquid formulation containing A2-73 at a concentration of 0.2 mg/mL, for a total daily dose of 1 mg of […]2-73.

[3] = test system: subject, diagnosed with Rett Syndrome; experiment: Example 6: liquid formulation in a subject with Rett Syndrome; type: in vivo, human; details: 1 mL of liquid formulation (0.2 mg/mL)
Protocol: A subject, diagnosed with Rett Syndrome is administered 1 mL of a liquid formulation (0.2 mg/mL).

[4] = test system: female subjects diagnosed with Rett Syndrome; experiment: Example 5: 7-week treatment of Rett Syndrome subjects, RSBQ and CGI-I; type: in vivo, human
Source text: One useful measure of improvement for one or more symptoms of a genetic neurodevelopmental disorder may be determined using a behavioral questionnaire that interrogates a primary caregiver of a subject at multiple time points during a course of treatment, regarding multiple behavioral indicators of the disorder. For example, a Rett Syndrome Behavior Questionnaire (RSBQ) may comprise multiple, e.g., at least five but optionally 10 or more, such as 12, 15, 20, 25, 30, 35, 40, 45 or 50 or more behavioral indicators which ask for a caregiver's observations of the subject regarding the frequency of specific episodes or occurrences of each indicator. […]
Another useful measurement for one or more symptoms of a genetic neurodevelopmental disorder is a Clinical Global Impression-Improvement scale (CGI-I). This scale measures the improvement or worsening of the subject's condition relative to a baseline state before administration of the dosage form comprising a therapeutically acceptable amount of ANAVEX2-73, as assessed by one or more healthcare professionals. […]
as §1, §2

[5] = test system: healthy male volunteers; details: cited from earlier work
[6] = type: physicochemical
Source text: Dosage formulations used in the disclosed methods comprise a therapeutically effective amount of ANAVEX2-73, the crystalline HCl salt of tetrahydro-N,N-dimethyl-2,2-diphenyl-3-furanmethanamine, or tetrahydro-N,N-dimethyl-2,2-diphenyl-3-furanmethanamine hydrochloride (IUPAC name: 1-(2,2-diphenyloxolan-3-yl)-N,N-dimethylmethanamine hydrochloride). […] Thus ANAVEX2-73 (used herein to refer to the HCl salt or the free base) is highly amenable to incorporation in the dosage formulations disclosed herein. For example, ANAVEX2-73 as either the HCl salt or the free base has a relatively low molecular weight (<400 Da), and is thus well suited for transmucosal or transdermal delivery, or rapid oral delivery. ANAVEX2-73 has a pKa around 8-9, which also makes it well-suited for transmucosal delivery. Therapeutically effective doses of ANAVEX2-73 are well suited for various thin film formulations, including oral and transdermal thin film formulations.

[7] = single oral dose, healthy male volunteers

With `CN(C)CC1CCOC1(c1ccccc1)c1ccccc1.Cl` (centres unmarked) [ANAVEX2-73, tetrahydro-N,N-dimethyl-2,2-diphenyl-3-furanmethanamine hydrochloride] the “levels of glutamate biomarker in plasma” value [1] was “decreased significantly”, the “motor skills and cognition according to follow-up questionnaire” value [2] was “improvement” and the CGI-I index [3] was “improvement”. The “Rett Syndrome Behavior Questionnaire (RSBQ)” value [3] was “improvement”, the “improvement in the RSBQ” value ([4]; all six subjects, week 0 to week 7, Wilcoxon Z=−2.207, p (2-tailed)=0.027) was “over 30%” and the “RSBQ and CGI-I after 7 weeks” value ([4]; correlated, p=0.003) was “reduction”. For the same compound, the “parameters measured (FIG. 1, FIG. 2A-D, FIG. 3A-E)” value ([4]; orally administered liquid formulation, 7 weeks) was “vast improvement”, the serious adverse events ([5]; single ascending oral dose, 22 healthy male volunteers) was “No serious adverse events” and the “maximum tolerable dose (MTD)” value [5, 7] was 55 mg. For the same compound, the “minimum intolerable dose (MID)” value [5, 7] was 60 mg.
With `CN(C)CC1CCOC1(c1ccccc1)c1ccccc1` (centres unmarked) [free base form of ANAVEX2-73, tetrahydro-N,N-dimethyl-2,2-diphenyl-3-furanmethanamine] the “solubility in organic solvents” value [6] was “soluble in almost all organic solvents”.
